Reference: publication PMC12406203 (Journal of Medicinal Chemistry, 2025)

Experiments:
panel of 103 kinases = assay: KINOMEscan kinase selectivity profiling (whole panel); format: binding; conditions: 10 and 1 μM
Protocol: The kinase inhibition profile of compounds 94 and 95 was assessed against 103 protein kinases by Eurofins DiscoverX, LLC., using the KINOMEscan assay. Kinase-tagged T7 phage strains were grown in parallel in 24-well blocks in an E. coli host derived from the BL21 strain. E. coli were grown to log-phase and infected with T7 phage from a frozen stock (multiplicity of infection = 0.4) and incubated with shaking at 32 °C until lysis (90–150 min). The lysates were centrifuged (6000g) and filtered (0.2 μm) to remove cell debris. The remaining kinases were produced in HEK-293 cells and subsequently tagged with DNA for qPCR detection. […] The liganded beads were blocked with excess biotin and washed with blocking buffer (SeaBlock (Pierce), 1% BSA, 0.05% Tween 20, 1 mM DTT) to remove unbound ligand and to reduce nonspecific phage binding. […] Test compounds were prepared as 100× stocks in 100% DMSO and directly diluted into the assay. All reactions were performed in polypropylene 384-well plates in a final volume of 0.02 mL. […] The kinase concentration in the eluates was measured by qPCR.
The compound(s) were screened at the concentration(s) requested, and results for primary screen binding interactions are reported as RA (%), where lower numbers indicate stronger hits in the matrix. RA=(testcompoundsignal−PCsignal/NCsignal−PCsignal)×100
Test compound = Cpd. […]

[1] = test system: ABL1(E255K)-phosphorylated
PBMCs = assay: Cytokine release from PHA-stimulated PBMCs; format: cell-based, human; conditions: for production of pro-inflammatory cytokines IL-8, IL-1β, IL-6, IL-10, and TNF-α: 1, 2.5, and 5 μM, 18 h
Protocol: Human PBMCs from healthy donors were isolated from heparinized blood by density gradient centrifugation with Ficoll-Paque. The isolated cells were washed twice with PBS, resuspended in RPMI 1640 medium (Sigma-Aldrich, St. Louis, MO, USA) supplemented with 10% heat-inactivated fetal bovine serum (Gibco), 2 mM L-glutamine (Sigma-Aldrich), 100 U/mL penicillin (Sigma-Aldrich), and 100 μg/mL streptomycin (Sigma-Aldrich), and used in the assays.
Peripheral blood mononuclear cells were seeded (500,000 cells/well) in 24-well plates in 500 μL of growth medium and treated with compounds 94, 95, and neflamapimod (1, 2.5, and 5 μM) in the presence or absence of PHA (1 μg/mL) or the corresponding vehicle (0.1% DMSO). Cell-free supernatants were collected after 18 h of incubation (37 °C, 5% CO2) and stored at −80 °C until tested. Cytokine production was determined with BD Cytometric Bead Array human inflammatory cytokines kit (BD Bioscience) on an Attune NxT flow cytometer (Thermo Fisher Scientific, Waltham, MA, USA). Standard curves were generated using recombinant cytokines contained in the kit. The data were analyzed using the FlowJo (Tree Star, Inc., Ashland, OR, USA) and Prism (GraphPad Prism 6.0, GraphPad Software) software.

LPS-treated mice = assay: Morris water maze task, LPS model of neuroinflammation; format: in vivo; conditions: 10 mg/kg i.p.; for escape latency, acquisition phase (days 1–6) of MWM: from day 2 (94) or day 3 (95) to day 6, vs LPS alone
Protocol: The compounds were administered for 10 consecutive days, and on the last 6 days of their administration, LPS was also administered intraperitoneally 5 h before the test compounds. On these 6 days, the acquisition phase of the MWM task was performed. One day later, the retention, drug-off trial of the MWM task was carried out.
In the LPS model adult male C57BL/6J mice (Animal Breeding Farm of the Faculty of Pharmacy, Jagiellonian University Medical College) of similar weight and age were used. […] The mice had unlimited access to food and water prior to the experiment. Specified conditions for the maintenance of mice were ensured throughout the experiment, including tree bedding (Transwior, Poland) and cage enrichment (tunnels, nesting material, wooden igloos, etc.). For behavioral tests, the mice were selected randomly; each group consisted of 7–10 mice. […] After in vivo tests, the animals were immediately euthanized, and their tissues were collected and stored for further ex vivo testing.
LPS (Lipopolysaccharide from Escherichia coli O111:B4, Sigma-Aldrich, Poland) was used to induce neuroinflammation in mice. […] They were administered intraperitoneally (i.p.) 60 min before the acquisition trial of the PA, NOR, and MWM tasks. […] In the rotarod, locomotor activity, and MWM tests, only one dose effective in the scopolamine model of amnesia was evaluated.
The Morris water maze is a circular, plastic, and gray-painted pool (120 cm in diameter and 60 cm in height), filled with water (up to about 48 cm below the edge to prevent an animal from jumping out), maintained at 23 ± 1 °C. The pool was divided into four equal quadrants (compass locations: NE, NW, SE, SW) by a computerized video tracking system (SMART, ver. 3.0; Panlab, Spain). An escape platform (11 cm in diameter and 47 cm in height) at a fixed location (the center of the NW quadrant, i.e., the target quadrant) was made of transparent Plexiglas, being invisible to the swimming animal, and was immersed 1 cm under the surface of water. The maze was lighted with an intensity of 45 lx. […] The time taken to reach the hidden platform (escape latency) on days 1–6 was recorded for each mouse and analyzed. Each animal was released from a different starting point and was allowed to swim for 60 s. […] On the seventh day (a drug-off trial conducted 24 h after the last training trial), the platform was removed from the pool, and a probe trial was performed (without drug treatmentassessment of memory retention).

in vitro = conditions: PAMPA, pH 7.4

CC(C)Cn1ncc2cc(Cc3ccc(F)cc3F)c(C(=O)NCCN(C)C)cc21 [Compound 94, 5-(2,4-Difluorobenzyl)-N-(2-(dimethylamino)ethyl)-1-isobutyl-1H-indazole-6-carboxamide]
RA @ 1000nM (PIK3CG): 86%
RA @ 10000nM (PIK3CG): 85%
kinase selectivity (panel of 103 kinases): high selectivity for p38α MAPK
RA @ 1000nM (LCK): 100%
RA @ 10000nM (LCK): 97%
RA @ 1000nM (TSSK1B): 77%
RA @ 10000nM (TSSK1B): 89%
RA @ 1000nM (KIT(D816V)): 94%
RA @ 10000nM (KIT(D816V)): 100%
RA @ 1000nM [1]: 96%
RA @ 10000nM [1]: 55%
RA @ 1000nM (KIT): 100%
RA @ 10000nM (KIT): 100%
RA @ 1000nM (SRPK3): 77%
RA @ 10000nM (SRPK3): 100%
RA @ 1000nM (IKKβ): 89%
RA @ 10000nM (IKKβ): 89%
RA @ 1000nM (VEGFR2): 100%
RA @ 10000nM (VEGFR2): 100%
RA @ 1000nM (ALK): 93%
RA @ 10000nM (ALK): 83%
RA @ 1000nM (CDK9): 100%
RA @ 10000nM (CDK9): 100%
RA @ 1000nM (GSK3B): 91%
RA @ 10000nM (GSK3B): 97%
RA @ 1000nM (p38δ): 97%
RA @ 10000nM (p38δ): 100%
production of IL-12 (PBMCs): increased, albeit at a low level
production of pro-inflammatory cytokines IL-8, IL-1β, IL-6, IL-10, and TNF-α (PBMCs): significantly inhibited
RA @ 1000nM (SNARK): 100%
RA @ 10000nM (SNARK): 93%
RA @ 1000nM (DYRK1B): 100%
RA @ 10000nM (DYRK1B): 85%
RA @ 1000nM (MAPKAPK5): 100%
RA @ 10000nM (MAPKAPK5): 100%
RA @ 1000nM (TRKA): 98%
RA @ 10000nM (TRKA): 94%
escape latency, acquisition phase (days 1–6) of MWM (LPS-treated mice): statistically significant decrease in escape latency from day 2
RA @ 1000nM (EGFR): 98%
RA @ 10000nM (EGFR): 69%
RA @ 1000nM (PIM1): 95%
RA @ 10000nM (PIM1): 100%
RA @ 1000nM (IGF1R): 94%
RA @ 10000nM (IGF1R): 84%
RA @ 1000nM (p38γ): 93%
RA @ 10000nM (p38γ): 94%
RA @ 1000nM (CHEK1): 100%
RA @ 10000nM (CHEK1): 100%
RA @ 1000nM (TGFBR1): 100%
RA @ 10000nM (TGFBR1): 100%
RA @ 1000nM (MAPKAPK2): 100%
RA @ 10000nM (MAPKAPK2): 84%
RA @ 1000nM (MKNK2): 76%
RA @ 10000nM (MKNK2): 80%
RA @ 1000nM (ABL1-phosphorylated): 79%
RA @ 10000nM (ABL1-phosphorylated): 53%
RA @ 1000nM (FGFR2): 95%
RA @ 10000nM (FGFR2): 100%
RA @ 1000nM (JNK3): 55%
RA @ 10000nM (JNK3): 6.8%
RA @ 1000nM (AURKB): 84%
RA @ 10000nM (AURKB): 68%
Papp (in vitro): 10.4 ×10⁻⁶ cm/s
RA @ 1000nM (ACVR1B): 100%
RA @ 10000nM (ACVR1B): 100%

CN(C)CCNC(=O)c1cc2c(cnn2CC2CCCCC2)cc1Cc1ccc(F)cc1F [Compound 95, 1-(Cyclohexylmethyl)-5-(2,4-difluorobenzyl)-N-(2-(dimethylamino)ethyl)-1H-indazole-6-carboxamide]
RA @ 1000nM (PIK3CG): 92%
RA @ 10000nM (PIK3CG): 97%
kinase selectivity (panel of 103 kinases): high selectivity for p38α MAPK
RA @ 1000nM (LCK): 94%
RA @ 10000nM (LCK): 100%
RA @ 1000nM (TSSK1B): 100%
RA @ 10000nM (TSSK1B): 79%
RA @ 1000nM (KIT(D816V)): 96%
RA @ 10000nM (KIT(D816V)): 94%
RA @ 1000nM [1]: 96%
RA @ 10000nM [1]: 93%
RA @ 1000nM (KIT): 100%
RA @ 10000nM (KIT): 100%
RA @ 1000nM (SRPK3): 92%
RA @ 10000nM (SRPK3): 99%
RA @ 1000nM (IKKβ): 93%
RA @ 10000nM (IKKβ): 80%
RA @ 1000nM (VEGFR2): 100%
RA @ 10000nM (VEGFR2): 100%
RA @ 1000nM (ALK): 62%
RA @ 10000nM (ALK): 92%
RA @ 1000nM (CDK9): 100%
RA @ 10000nM (CDK9): 93%
RA @ 1000nM (GSK3B): 100%
RA @ 10000nM (GSK3B): 80%
RA @ 1000nM (p38δ): 100%
RA @ 10000nM (p38δ): 100%
production of IL-12 (PBMCs): increased, albeit at a low level
production of pro-inflammatory cytokines IL-8, IL-1β, IL-6, IL-10, and TNF-α (PBMCs): significantly inhibited
RA @ 1000nM (SNARK): 93%
RA @ 10000nM (SNARK): 92%
RA @ 1000nM (DYRK1B): 95%
RA @ 10000nM (DYRK1B): 100%
RA @ 1000nM (MAPKAPK5): 100%
RA @ 10000nM (MAPKAPK5): 100%
RA @ 1000nM (TRKA): 100%
RA @ 10000nM (TRKA): 92%
escape latency, acquisition phase (days 1–6) of MWM (LPS-treated mice): statistically significant decrease in escape latency
latency to NW zone entry (MWM day 7, drug-off) (LPS-treated mice; vs LPS-treated control, p < 0.05): statistically significant difference
RA @ 1000nM (EGFR): 100%
RA @ 10000nM (EGFR): 100%
RA @ 1000nM (PIM1): 100%
RA @ 10000nM (PIM1): 94%
RA @ 1000nM (IGF1R): 100%
RA @ 10000nM (IGF1R): 93%
RA @ 1000nM (p38γ): 100%
RA @ 10000nM (p38γ): 99%
RA @ 1000nM (CHEK1): 100%
RA @ 10000nM (CHEK1): 100%
RA @ 1000nM (TGFBR1): 100%
RA @ 10000nM (TGFBR1): 100%
RA @ 1000nM (MAPKAPK2): 100%
RA @ 10000nM (MAPKAPK2): 100%
RA @ 1000nM (MKNK2): 81%
RA @ 10000nM (MKNK2): 67%
RA @ 1000nM (ABL1-phosphorylated): 81%
RA @ 10000nM (ABL1-phosphorylated): 85%
RA @ 1000nM (FGFR2): 100%
RA @ 10000nM (FGFR2): 100%
RA @ 1000nM (JNK3): 48%
RA @ 10000nM (JNK3): 3.7%
RA @ 1000nM (AURKB): 99%
RA @ 10000nM (AURKB): 71%
Papp (in vitro): 13.2 ×10⁻⁶ cm/s
RA @ 1000nM (ACVR1B): 100%
RA @ 10000nM (ACVR1B): 100%
